Experiments:
[1] = system: MOLM-13; assay: cells; type: cell-based; conditions: Homo sapiens; MOLM-13, AML, dominant CDK6; read-out: IC50, mean ± SD
[2] = system: SEM cells; assay: cells; type: cell-based; conditions: ALL, dominant CDK6, read-out: IC50, mean ± SD
[3] = target: T1, CDK4 (Homo sapiens, UniProt P11802); assay: KINOMEscan binding assay; conditions: Supplementary Table 1A
T1 construct: purchased DiscoveRx (KINOMEscan)

[4] = system: PC-14; assay: cells; type: cell-based; conditions: Homo sapiens, PC-14, 72 h
[5] = in vivo; conditions: male, rat, po
[6] = system: CHP-212; assay: cells; type: cell-based; conditions: Homo sapiens, CHP-212, 72 h
[7] = system: KYSE30; assay: cells; type: cell-based; conditions: Homo sapiens, KYSE-30; KYSE30, 72 h
[8] = system: TE-14; assay: cells; type: cell-based; conditions: TE-14, 72 h
[9] = system: NCI-H1792; assay: cells; type: cell-based; conditions: Homo sapiens, NCI-H1792, 72 h
[10] = system: HBCx-10; type: in vivo; conditions: HBCx-10, Breast, TNBC, Rb absent; 125 mg/kg bid × 21
[11] = system: TE-11; assay: cells; type: cell-based; conditions: Homo sapiens, TE-11, 72 h
[12] = system: MCF-7; assay: cells; type: cell-based; conditions: Homo sapiens, MCF7; MCF-7, 72 h
[13] = system: NCI-H23; assay: cells; type: cell-based; conditions: Homo sapiens, NCI-H23, 72 h
[14] = system: KYSE30; assay: cells; type: cell-based; conditions: Homo sapiens, KYSE-30; KYSE30, 72 h; remark: listed apart in the source
[15] = system: A549; assay: cells; type: cell-based; conditions: Homo sapiens, A549, 72 h
[16] = system: NCI-H1792; assay: cells; type: cell-based; conditions: Homo sapiens, NCI-H1792, 72 h; remark: listed apart in the source
[17] = system: TE-5; assay: cells; type: cell-based; conditions: Homo sapiens, TE-5, 72 h
[18] = system: HBCx-16; type: in vivo; conditions: HBCx-16, Breast, HER2High, Rb present; 125 mg/kg bid × 21
[19] = system: CDK2/cyclin A; conditions: cited from earlier work

T1 sequence (P11802 whole entry): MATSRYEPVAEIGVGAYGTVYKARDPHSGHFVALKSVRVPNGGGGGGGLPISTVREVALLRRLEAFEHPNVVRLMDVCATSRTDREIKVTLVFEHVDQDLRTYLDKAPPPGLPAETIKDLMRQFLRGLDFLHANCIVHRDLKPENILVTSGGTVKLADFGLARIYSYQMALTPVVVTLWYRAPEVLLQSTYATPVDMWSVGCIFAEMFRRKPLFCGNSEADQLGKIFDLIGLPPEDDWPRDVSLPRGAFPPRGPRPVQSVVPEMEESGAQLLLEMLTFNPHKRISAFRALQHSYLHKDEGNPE

SMILES: CC(=O)c1c(C)c2cnc(Nc3ccc(N4CCNCC4)cn3)nc2n(C2CCCC2)c1=O [Palbociclib, reference compound]
- IC50 [1]: 47 ± 25 µM
- IC50 [2]: 87 ± 28 µM

SMILES: CN(C)C(=O)c1cc2cnc(Nc3ccc(N4CCNCC4)cn3)nc2n1C1CCCC1 [Ribociclib, 7-cyclopentyl-2-(5-piperazin-1-yl-pyridin-2-ylamino)-7H-pyrrolo[2,3-d]pyrimidine-6-carboxylic acid dimethylamide]
- affinity for CDK4, lower than that observed for abemaciclib [3]: ~10 fold
- IC50 [4]: > 10 µM
- Cmax ([5]; 10 mg/kg): 110 ng/mL
- Cmax ([5]; 75 mg/kg): 1740 ng/mL
- Cmax ([5]; 150 mg/kg): 1680 ng/mL
- IC50 [6]: 0.3 µM
- IC50 [7]: 4.06 µM
- IC50 [8]: > 10 µM
- IC50 [9]: > 10 µM
- T/C [10]: 82
- IC50 [11]: > 10 µM
- IC50 [12]: > 10 µM
- IC50 [13]: > 10 µM
- IC50 [14]: > 10 µM
- IC50 [15]: 1.2 µM
- IC50 [16]: 0.61 µM
- IC50 [17]: > 10 µM
- T/C [18]: 71
- activity against CDK2/cyclin A [19]: far less active

Source: publication PMC6219668 (Oncotarget, 2018)
